# Reference: patent US6417187B2, “1,2,4-triazole based compounds that can be used as insecticides or acaricides and processes” (Dow AgroSciences LLC, priority 2000, dated 2002)
# System: cotton aphid (Aphis gossvpii)
# Experiment: Insecticidal test for cotton aphid (squash cotyledon spray)
# Format: in vivo
# Settings: 50 ppm spray on infested squash cotyledons, 3 days, population reduction versus untreated
row,Compound,CA: activity at 50 ppm against cotton aphid (% Control rating)
1,Cn1nc(-c2c(F)cccc2Cl)nc1-c1sc(C#Cc2ccc(Br)cc2OC(F)(F)F)c(Cl)c1Cl [Compound 59],F (less than 50)
2,COc1ccc(C#Cc2ccc(-c3nc(-c4c(Cl)cncc4Cl)nn3C)cc2)cc1 [Compound 88],D (60-69)
3,Cc1cccc(C#Cc2sc(-c3nc(-c4c(F)cccc4Cl)nn3C)c(Cl)c2Cl)n1 [Compound 44],F (less than 50)
4,Cc1ccncc1C#Cc1sc(-c2nc(-c3c(F)cccc3Cl)nn2C)c(Cl)c1Cl [Compound 21],F (less than 50)
5,Cc1ccc(C#Cc2sc(-c3nc(-c4c(F)cccc4Cl)nn3C)c(Cl)c2Cl)nc1 [Compound 58],F (less than 50)
6,Cc1ccnc(C#Cc2sc(-c3nc(-c4c(F)cccc4Cl)nn3C)c(Cl)c2Cl)c1 [Compound 43],F (less than 50)
7,CCCc1ccc(C#Cc2ccc(-c3nc(-c4c(F)cccc4Cl)nn3C)cc2)cc1 [Compound 71],A (90-100)
8,Cn1nc(-c2c(F)cccc2Cl)nc1-c1ccc(C#Cc2ccccc2)cc1 [Compound 70],C (70-79)
9,CCOc1ccc(C#Cc2ccc(-c3nc(-c4c(F)cccc4Cl)nn3C)s2)cc1 [Compound 66],B (80-89)
10,COc1ccc(C#Cc2cccc(-c3nc(-c4c(Cl)cncc4Cl)nn3C)c2)cc1 [Compound 89],B (80-89)
11,Cc1cccnc1C#Cc1sc(-c2nc(-c3c(F)cccc3Cl)nn2C)c(Cl)c1Cl [Compound 45],F (less than 50)
12,Cn1nc(-c2c(F)cccc2Cl)nc1-c1sc(C#Cc2ccccn2)c(Cl)c1Cl [Compound 33],F (less than 50)
13,Cn1nc(-c2c(F)cccc2Cl)nc1-c1sc(C#Cc2ccc(Cl)cn2)c(Cl)c1Cl [Compound 61],F (less than 50)
14,Cn1nc(-c2ccccc2F)nc1-c1sc(C#Cc2ccc(F)cc2)c(Cl)c1Cl [Compound 79],F (less than 50)
15,C=C(C)C#Cc1sc(-c2nc(-c3c(F)cccc3Cl)nn2C)c(Cl)c1Cl [Compound 38],D (60-69)
16,Cn1nc(-c2c(F)cccc2Cl)nc1-c1sc(C#Cc2ccc(C(F)(F)F)cn2)c(Cl)c1Cl [Compound 62],F (less than 50)
17,Cn1nc(-c2c(F)cccc2Cl)nc1-c1sc(C#Cc2cc(Cl)c(OCC(F)(F)F)c(Cl)c2)c(Cl)c1Cl [Compound 22],F (less than 50)
18,CCCc1ccc(C#Cc2sc(-c3nc(C)nn3C)c(Cl)c2Cl)cc1 [Compound 75],F (less than 50)
19,Cn1nc(-c2c(F)cccc2Cl)nc1-c1ccc(C#Cc2ccccc2F)s1 [Compound 69],E (50-59)
20,Cn1nc(-c2c(F)cccc2Cl)nc1-c1ccc(C#Cc2ccccc2)s1 [Compound 68],A (90-100)

# Same assay, conditions: 72 h; 50 ppm spray on infested squash cotyledons, 3 days, population reduction versus untreated; read-out: CA: activity at 50 ppm against cotton aphid (% Control rating)
row,Compound,pest or weed control at 50 ppm
1,CCC#Cc1sc(-c2nc(-c3c(F)cccc3Cl)nn2C)c(Cl)c1Cl [Compound 5],80 to 89%
2,C#Cc1ccc(-c2nc(-c3c(F)cccc3Cl)nn2C)c(Cl)c1Cl [Compound 97],80 to 89%

# Same assay, conditions: in vivo
row,Compound,CA: activity at 50 ppm against cotton aphid (% Control rating)
1,CC=CC#Cc1sc(-c2nc(-c3c(F)cccc3Cl)nn2C)c(Cl)c1Cl [Compound 39],B (key: A: 90-100; B: 80-89; C: 70-79; D: 60-69; E: 50-59; F: less than 50; G: inactive)

# System: Sweetpotato Whitefly (Bemisia tabacia)
# Experiment: Insecticidal test for Sweetpotato Whitefly (cotton plant spray)
# Format: in vivo
# Settings: 200 ppm spray on cotton plants, 13 days, reduction of large nymphs
row,Compound,WF: activity at 200 ppm against whitefly (% Control rating)
1,Cn1nc(-c2c(F)cccc2Cl)nc1-c1sc(C#Cc2ccc(Br)cc2OC(F)(F)F)c(Cl)c1Cl [Compound 59],F (less than 50)
2,COc1ccc(C#Cc2ccc(-c3nc(-c4c(Cl)cncc4Cl)nn3C)cc2)cc1 [Compound 88],F (less than 50)
3,Cc1cccc(C#Cc2sc(-c3nc(-c4c(F)cccc4Cl)nn3C)c(Cl)c2Cl)n1 [Compound 44],F (less than 50)
4,Cc1ccc(C#Cc2sc(-c3nc(-c4c(F)cccc4Cl)nn3C)c(Cl)c2Cl)nc1 [Compound 58],F (less than 50)
5,CCCc1ccc(C#Cc2sc(-c3nc(-c4c(F)cccc4Cl)n[nH]3)c(Cl)c2Cl)cc1 [Compound 80],F (less than 50)
6,Cc1ccnc(C#Cc2sc(-c3nc(-c4c(F)cccc4Cl)nn3C)c(Cl)c2Cl)c1 [Compound 43],F (less than 50)
7,CCCc1ccc(C#Cc2ccc(-c3nc(-c4c(F)cccc4Cl)nn3C)cc2)cc1 [Compound 71],F (less than 50)
8,Cn1nc(-c2c(F)cccc2Cl)nc1-c1ccc(C#Cc2ccccc2)cc1 [Compound 70],F (less than 50)
9,CCOc1ccc(C#Cc2ccc(-c3nc(-c4c(F)cccc4Cl)nn3C)s2)cc1 [Compound 66],F (less than 50)
10,COc1ccc(C#Cc2cccc(-c3nc(-c4c(Cl)cncc4Cl)nn3C)c2)cc1 [Compound 89],F (less than 50)
11,Cc1cc(C#Cc2sc(-c3nc(-c4c(F)cccc4Cl)nn3C)c(Cl)c2Cl)ccn1 [Compound 57],F (less than 50)
12,Cc1cccnc1C#Cc1sc(-c2nc(-c3c(F)cccc3Cl)nn2C)c(Cl)c1Cl [Compound 45],F (less than 50)
13,Cn1nc(-c2c(F)cccc2Cl)nc1-c1sc(C#Cc2ccccn2)c(Cl)c1Cl [Compound 33],D (60-69)
14,Cn1nc(-c2c(F)cccc2Cl)nc1-c1sc(C#Cc2ccc(Cl)cn2)c(Cl)c1Cl [Compound 61],F (less than 50)
15,Cn1nc(-c2ccccc2F)nc1-c1sc(C#Cc2ccc(F)cc2)c(Cl)c1Cl [Compound 79],D (60-69)
16,C=C(C)C#Cc1sc(-c2nc(-c3c(F)cccc3Cl)nn2C)c(Cl)c1Cl [Compound 38],F (less than 50)
17,Cn1nc(-c2c(F)cccc2Cl)nc1-c1sc(C#Cc2ccc(C(F)(F)F)cn2)c(Cl)c1Cl [Compound 62],F (less than 50)
18,Cn1nc(-c2c(F)cccc2Cl)nc1-c1sc(C#Cc2cc(Cl)c(OCC(F)(F)F)c(Cl)c2)c(Cl)c1Cl [Compound 22],D (60-69)
19,CCCc1ccc(C#Cc2sc(-c3nc(C)nn3C)c(Cl)c2Cl)cc1 [Compound 75],F (less than 50)
20,Cn1nc(-c2c(F)cccc2Cl)nc1-c1ccc(C#Cc2ccccc2F)s1 [Compound 69],F (less than 50)
21,Cn1nc(-c2c(F)cccc2Cl)nc1-c1ccc(C#Cc2ccccc2)s1 [Compound 68],F (less than 50)

# Same assay, conditions: Bemisia, 312 h; 200 ppm spray on cotton plants, 13 days, reduction of large nymphs; read-out: WF: activity at 200 ppm against whitefly (% Control rating)
row,Compound,pest or weed control at 200 ppm
1,CCC#Cc1sc(-c2nc(-c3c(F)cccc3Cl)nn2C)c(Cl)c1Cl [Compound 5],< 50%
2,C#Cc1ccc(-c2nc(-c3c(F)cccc3Cl)nn2C)c(Cl)c1Cl [Compound 97],< 50%

# System: Brown Planthopper (Nilaparvata lugens)
# Experiment: Insecticidal test for Brown Planthopper (rice seedling roots in test solution)
# Format: in vivo
# Settings: 10 ppm test solution, rice seedling roots, 3rd instar nymphs, mortality at 6 days
row,Compound,BPH: activity at 10 ppm against brown planthopper (% Control rating)
1,Cn1nc(-c2c(F)cccc2Cl)nc1-c1sc(C#Cc2ccc(Br)cc2OC(F)(F)F)c(Cl)c1Cl [Compound 59],F (less than 50)
2,Cc1ccncc1C#Cc1sc(-c2nc(-c3c(F)cccc3Cl)nn2C)c(Cl)c1Cl [Compound 21],F (less than 50)
3,Cc1ccc(C#Cc2sc(-c3nc(-c4c(F)cccc4Cl)nn3C)c(Cl)c2Cl)nc1 [Compound 58],F (less than 50)
4,CCC#Cc1sc(-c2nc(-c3c(F)cccc3Cl)nn2C)c(Cl)c1Cl [Compound 5],F (less than 50)
5,CCCc1ccc(C#Cc2ccc(-c3nc(-c4c(F)cccc4Cl)nn3C)cc2)cc1 [Compound 71],F (less than 50)
6,Cc1cccnc1C#Cc1sc(-c2nc(-c3c(F)cccc3Cl)nn2C)c(Cl)c1Cl [Compound 45],F (less than 50)
7,Cn1nc(-c2c(F)cccc2Cl)nc1-c1sc(C#Cc2ccccn2)c(Cl)c1Cl [Compound 33],F (less than 50)
8,Cn1nc(-c2c(F)cccc2Cl)nc1-c1sc(C#Cc2ccc(Cl)cn2)c(Cl)c1Cl [Compound 61],F (less than 50)
9,Cn1nc(-c2ccccc2F)nc1-c1sc(C#Cc2ccc(F)cc2)c(Cl)c1Cl [Compound 79],F (less than 50)
10,Cn1nc(-c2c(F)cccc2Cl)nc1-c1sc(C#Cc2ccc(C(F)(F)F)cn2)c(Cl)c1Cl [Compound 62],F (less than 50)
11,Cn1nc(-c2c(F)cccc2Cl)nc1-c1sc(C#Cc2cc(Cl)c(OCC(F)(F)F)c(Cl)c2)c(Cl)c1Cl [Compound 22],F (less than 50)
12,CCCc1ccc(C#Cc2sc(-c3nc(C)nn3C)c(Cl)c2Cl)cc1 [Compound 75],C (70-79)
13,Cn1nc(-c2c(F)cccc2Cl)nc1-c1ccc(C#Cc2ccccc2)s1 [Compound 68],F (less than 50)

# Same assay, conditions: in vivo
row,Compound,BPH: activity at 10 ppm against brown planthopper (% Control rating)
1,CC=CC#Cc1sc(-c2nc(-c3c(F)cccc3Cl)nn2C)c(Cl)c1Cl [Compound 39],F (key: A: 90-100; B: 80-89; C: 70-79; D: 60-69; E: 50-59; F: less than 50; G: inactive)

# System: Green Leafhopper (Nephotettix cincticeps)
# Experiment: Insecticidal test for Green Leafhopper (rice seedling roots in test solution)
# Format: in vivo
# Settings: 10 ppm test solution, rice seedling roots, 3rd instar nymphs, mortality at 6 days
row,Compound,GLH: activity at 10 ppm against green leafbopper (% Control rating)
1,Cn1nc(-c2c(F)cccc2Cl)nc1-c1sc(C#Cc2ccc(Br)cc2OC(F)(F)F)c(Cl)c1Cl [Compound 59],F (less than 50)
2,COc1ccc(C#Cc2ccc(-c3nc(-c4c(Cl)cncc4Cl)nn3C)cc2)cc1 [Compound 88],F (less than 50)
3,Cc1ccc(C#Cc2sc(-c3nc(-c4c(F)cccc4Cl)nn3C)c(Cl)c2Cl)nc1 [Compound 58],F (less than 50)
4,CCC#Cc1sc(-c2nc(-c3c(F)cccc3Cl)nn2C)c(Cl)c1Cl [Compound 5],F (less than 50)
5,Cc1ccnc(C#Cc2sc(-c3nc(-c4c(F)cccc4Cl)nn3C)c(Cl)c2Cl)c1 [Compound 43],F (less than 50)
6,CCOc1ccc(C#Cc2ccc(-c3nc(-c4c(F)cccc4Cl)nn3C)s2)cc1 [Compound 66],F (less than 50)
7,COc1ccc(C#Cc2cccc(-c3nc(-c4c(Cl)cncc4Cl)nn3C)c2)cc1 [Compound 89],F (less than 50)
8,Cc1cc(C#Cc2sc(-c3nc(-c4c(F)cccc4Cl)nn3C)c(Cl)c2Cl)ccn1 [Compound 57],F (less than 50)
9,Cc1cccnc1C#Cc1sc(-c2nc(-c3c(F)cccc3Cl)nn2C)c(Cl)c1Cl [Compound 45],F (less than 50)
10,Cn1nc(-c2c(F)cccc2Cl)nc1-c1sc(C#Cc2ccccn2)c(Cl)c1Cl [Compound 33],F (less than 50)
11,Cn1nc(-c2c(F)cccc2Cl)nc1-c1sc(C#Cc2ccc(Cl)cn2)c(Cl)c1Cl [Compound 61],F (less than 50)
12,Cn1nc(-c2ccccc2F)nc1-c1sc(C#Cc2ccc(F)cc2)c(Cl)c1Cl [Compound 79],F (less than 50)
13,Cn1nc(-c2c(F)cccc2Cl)nc1-c1sc(C#Cc2ccc(C(F)(F)F)cn2)c(Cl)c1Cl [Compound 62],F (less than 50)
14,Cn1nc(-c2c(F)cccc2Cl)nc1-c1sc(C#Cc2cc(Cl)c(OCC(F)(F)F)c(Cl)c2)c(Cl)c1Cl [Compound 22],F (less than 50)
15,CCCc1ccc(C#Cc2sc(-c3nc(C)nn3C)c(Cl)c2Cl)cc1 [Compound 75],F (less than 50)
16,Cn1nc(-c2c(F)cccc2Cl)nc1-c1ccc(C#Cc2ccccc2F)s1 [Compound 69],F (less than 50)
17,Cn1nc(-c2c(F)cccc2Cl)nc1-c1ccc(C#Cc2ccccc2)s1 [Compound 68],F (less than 50)

# Same assay, conditions: in vivo
row,Compound,GLH: activity at 10 ppm against green leafbopper (% Control rating)
1,CC=CC#Cc1sc(-c2nc(-c3c(F)cccc3Cl)nn2C)c(Cl)c1Cl [Compound 39],F (key: A: 90-100; B: 80-89; C: 70-79; D: 60-69; E: 50-59; F: less than 50; G: inactive)
